The results in this text go back to ChEMBL document CHEMBL3988442, “University of Dundee, Small-Polar-MMV Screening Library” (2021).

Test [1] in a line: microbe, parasite or virus in culture. Particulars: Mycobacterium tuberculosis, 96 h, read-out: pIC50 (converted).
A short description of test [2]: microbe, parasite or virus in culture. Particulars: Mycobacterium tuberculosis, 72 h, read-out: pIC50 (converted).

For `O=C(Oc1nsnc1N1CCCCC1)N1CCOCC1`, the IC50 was 432 µM in test [1] and 168 µM in test [2].
Regarding `COC(=O)[C@@H]1C[C@@H](O)CN1Cc1ncc(C(C)(C)C)o1`, the IC50 in test [1] and in test [2] was above 501 µM in each case.
Regarding `O=C(c1ccc(Cl)o1)N1CCN(Cc2ccco2)CC1`, the results for the IC50 in test [1] and in test [2] were 69.4 µM and 102 µM, respectively.
As for `CCC(CO)NC(=O)C1(c2ccc(F)cc2F)CCC1` (stereo not given), the IC50 in test [1] is above 501 µM; in test [2], 313 µM.
As to `NCCCc1nc(-c2ccc(F)cc2)no1`, the values for the IC50 in test [1] and in test [2] were 186 µM and 163 µM, respectively.
For the molecule `O=S(=O)(NC1CCCC1)c1cncc(Cl)c1`, the IC50 in test [1] is above 501 µM; in test [2], 226 µM.
Regarding `O=C(Nc1cccc(-n2cccn2)c1)N1CCSCC1`, the IC50 in test [1] and in test [2] was above 501 µM throughout.
Consider `Cc1ccnc(NCCS(=O)(=O)NCC2CCC2)c1`, for which the IC50 was 117 µM in test [1] and 265 µM in test [2].
Regarding `CCOCC(=O)NCC(O)c1cccc(C(F)(F)F)c1` (stereo not given), the IC50 in test [1] and in test [2] was above 501 µM throughout.
For `CCCC(C#N)NC(=O)c1ccn(-c2ccccc2)n1` (stereo not given), the values for the IC50 in test [1] and in test [2] were above 501 µM and 294 µM, respectively.
Take `CCC1c2ccsc2CCN1C(=O)c1ccc(CN)o1` (stereo not given): the IC50 in test [1] is 370 µM; in test [2], 167 µM.
Regarding `CC(C)Cc1cc(C(=O)N(C)Cc2cnccn2)on1`, the IC50 in test [1] and in test [2] was above 501 µM in each case.
Consider `CN(C)C(=O)CSc1nnc(C(F)(F)F)s1`, for which the IC50 in test [1] is 305 µM; in test [2], 487 µM.
Take `CC(c1nc(COc2ccc(F)cc2)no1)S(C)(=O)=O` (stereo not given): the IC50 was 157 µM in test [1] and 230 µM in test [2].
Taken in the same sequence, the figures for `COCC(=O)NC1CCc2ccccc21` (stereo not given) were 124 µM and 114 µM.
On to `OC(CN1CCn2ccnc2C1)c1ccc(F)cc1` (stereo not given), for which the IC50 in test [1] is above 501 µM; in test [2] it was 173 µM.
Taken in the same sequence, the figures for `COCCN1CCCN(C(=O)c2cc(Cl)c[nH]2)CC1` were above 501 µM and 195 µM.
Consider `COCc1ccccc1CNC(=O)c1nc(C)ns1`, for which the IC50 was 145 µM in test [1] and 488 µM in test [2].
Taken in the same sequence, the figures for `CCC(CO)(CO)NCc1csc(-c2cccs2)n1` were above 501 µM and above 501 µM.
On to `COc1cccc(C(=O)NCc2ccoc2C)n1`, for which the IC50 in test [1] was above 501 µM; in test [2] it was 364 µM.
In the same order, the values of `CCOc1cc(Cl)ccc1CN` are 121 µM and 159 µM.
On to `CC(C)(C)OC(=O)N1CCN(C2CCC(N)CC2)CC1` (stereo not given), for which the IC50 in test [1] and in test [2] was above 501 µM each time.
`O=C(NCCc1ccc(F)c(F)c1)N1CCCC(O)C1` (stereo not given): the IC50 in test [1] and in test [2] was above 501 µM each time.
On to `O=C(CC1C=CCC1)N1CCN(c2ccccn2)CC1` (stereo not given), for which the figures for the IC50 in test [1] and in test [2] were 407 µM and 167 µM, respectively.
`CC(C)N(C)S(=O)(=O)NCCCN(C)c1ccccc1`: the IC50 in test [1] is 216 µM; in test [2], 193 µM.
Taken in the same sequence, the figures for `CNC(=O)c1sc(NC2CC2)nc1C` were 88.1 µM and 72.7 µM.
Take `CC(O)(CNc1ncccc1F)C1CCCC1` (stereo not given): the IC50 in test [1] is 262 µM; in test [2] it was 142 µM.
Regarding `CSCC(CCO)Nc1ncccc1C(F)(F)F` (stereo not given), the IC50 in test [1] is above 501 µM; in test [2] it was 253 µM.
Take `COc1cccc(S(=O)(=O)CCN2CCCC2CO)c1` (stereo not given): the IC50 was 141 µM in test [1] and 462 µM in test [2].
For the molecule `O=C(Nc1ccc(F)c(Cl)c1)N1CCC(O)C1` (stereo not given), the IC50 is 314 µM in test [1] and 212 µM in test [2].
Regarding `CC(C)CCC(=O)N1CCN(CC(O)C(F)(F)F)CC1` (stereo not given), the results for the IC50 in test [1] and in test [2] were 30.2 µM and 42 µM, respectively.
In the case of `NCCc1nsc2ccccc12`, the IC50 in test [1] was 189 µM; in test [2], 129 µM.
`CC1CN(C(=O)c2cnsn2)c2cccc(Cl)c2O1` (stereo not given): the IC50 is above 501 µM in test [1] and 67.6 µM in test [2].
As to `O=C(CNc1cccc(CO)c1)NCc1ccc(Cl)s1`, the IC50 in test [1] was above 501 µM; in test [2], 134 µM.
For `Cn1nccc1C(=O)NC1CCc2ccccc2OC1` (stereo not given), the IC50 in test [1] and in test [2] was above 501 µM each time.
In the case of `COCCNC(=O)Nc1ccc(OC(F)F)c(F)c1`, the IC50 is 253 µM in test [1] and 273 µM in test [2].
Consider `N[C@H]1CCN(S(=O)(=O)c2ccc(F)c(C(F)(F)F)c2)C1`, for which the values for the IC50 in test [1] and in test [2] were 171 µM and 100 µM, respectively.
In the same order, the values of `CN(C)C1(CN)Cc2ccccc2C1` are 127 µM and 81.5 µM.
As to `CC(CO)Sc1ccc(S(=O)(=O)C(F)F)cc1` (stereo not given), the values for the IC50 in test [1] and in test [2] were 158 µM and 459 µM, respectively.
For the molecule `CCOCCN1CCN(Cc2nnc(OCC)s2)CC1`, the IC50 in test [1] and in test [2] was above 501 µM throughout.
On to `O=C(CNC1CC1)NC[C@H]1CCc2ccccc2O1`, for which the IC50 in test [1] was 156 µM; in test [2] it was 130 µM.
On to `NCC(O)c1ccc(Cl)c(F)c1` (stereo not given), for which the IC50 in test [1] was above 501 µM; in test [2], 252 µM.
In the same order, the values of `OCc1cnc2c(F)cccc2c1` are above 501 µM and above 501 µM.
For the molecule `NCC(CO)Cc1cc(F)cc(Br)c1` (stereo not given), the IC50 in test [1] is 264 µM; in test [2], 305 µM.
On to `CCOc1ccc(C(C)=O)cc1CN1CCCC1`, for which the IC50 was 111 µM in test [1] and 59.8 µM in test [2].
Take `CC(C)CNc1cccc(-n2cnnn2)c1`: the IC50 in test [1] is 247 µM; in test [2], 274 µM.
Turning to `CC1CCCN(S(=O)(=O)N(C)Cc2ccco2)C1` (stereo not given), the IC50 in test [1] and in test [2] was above 501 µM each time.
Turning to `CNC(=O)CN(C)C(=O)CCc1ccc(Br)cc1F`, the IC50 is 166 µM in test [1] and 108 µM in test [2].
As to `CC(C)C(O)CCNC(=O)Cc1cccc(O)c1` (stereo not given), the IC50 is above 501 µM in test [1] and 430 µM in test [2].
As for `CCNc1cccc(OC)c1`, the IC50 in test [1] was 144 µM; in test [2], 109 µM.
As for `Clc1ccc(CSc2cnn[nH]2)s1`, the IC50 is 267 µM in test [1] and 236 µM in test [2].
In the same order, the values of `CC(C)CSCCSc1nnc(N)[nH]1` are above 501 µM and 240 µM.
On to `CS(=O)(=O)NCC(=O)Nc1ccc(-n2cccn2)cc1`, for which the IC50 in test [1] and in test [2] was above 501 µM each time.
For `C=C(C)CSc1nnnn1Cc1ccco1`, the IC50 in test [1] was 55.3 µM; in test [2], 51.6 µM.
Regarding `CC(C)N(C)S(=O)(=O)NCCc1cccs1`, the IC50 in test [1] was 206 µM; in test [2] it was 182 µM.
With `COc1cccc(CCN)n1`, the IC50 in test [1] is 192 µM; in test [2], 194 µM.
For the molecule `NS(=O)(=O)NCC1CCN(c2cccc(Br)c2)C1` (stereo not given), the IC50 in test [1] was 230 µM; in test [2] it was 247 µM.
In the case of `COCC(=O)NCCc1cc(Cl)c2c(c1)OCCO2`, the IC50 in test [1] is 176 µM; in test [2], 216 µM.
Taken in the same sequence, the figures for `CCc1ccc(S(=O)(=O)N2CC[C@@H](N)C2)cc1CC` were above 501 µM and above 501 µM.
Take `COC(=O)[C@H](C)NC(=O)C1(c2ccccc2F)CC1`: the IC50 in test [1] was above 501 µM; in test [2] it was 187 µM.
In the same order, the values of `CC(C)N(CCS(=O)(=O)c1ccccc1)CC(N)=O` are above 501 µM and 435 µM.
In the case of `CCS(=O)(=O)N(C)CCCNc1ccc(C)c(C#N)n1`, the results for the IC50 in test [1] and in test [2] were 84.2 µM and 106 µM, respectively.
With `CC(=O)c1ccc(NCC(=O)NC(C)C(C)C)cc1` (stereo not given), the IC50 in test [1] and in test [2] was 182 µM each time.
With `CCC1(CC)CN(C(=O)NCCC(C)C)CCS1(=O)=O`, the IC50 in test [1] is 407 µM; in test [2], above 501 µM.
In the same order, the values of `OCC(Nc1ncccc1Br)c1ccccc1` (stereo not given) are 327 µM and 184 µM.
Regarding `CCN1CCN(C(=O)C2CCCOC2)c2ccccc21` (stereo not given), the figures for the IC50 in test [1] and in test [2] were 276 µM and 158 µM, respectively.
Turning to `O=C(CCN1CCCC1CO)NCc1ccccc1Cl` (stereo not given), the figures for the IC50 in test [1] and in test [2] were above 501 µM and 460 µM, respectively.
On to `OC(CN1CCn2ccnc2C1)c1ccc(Cl)cc1` (stereo not given), for which the IC50 was above 501 µM in test [1] and 186 µM in test [2].
For `CCc1cccc2c1N(C(=O)[C@@H](N)CC)CC2`, the results for the IC50 in test [1] and in test [2] were above 501 µM and 244 µM, respectively.
`N#CCc1ccc(CN)cc1`: the results for the IC50 in test [1] and in test [2] were 135 µM and 182 µM, respectively.
With `CC(C)(C#N)C(=O)NCCNc1cccc(Br)c1`, the IC50 in test [1] was 206 µM; in test [2] it was 267 µM.
As for `Cc1n[nH]cc1CNCCNc1ncc(Cl)cc1Cl`, the IC50 is above 501 µM in test [1] and 82.1 µM in test [2].
Regarding `CC(C)Cn1ccnc1CNc1ncccc1F`, the IC50 was 382 µM in test [1] and 307 µM in test [2].
Regarding `CC(C)c1cc(N)[nH]n1`, the IC50 in test [1] and in test [2] was above 501 µM in each case.
On to `COCC(=O)N1CCC2(CC1)OCCO2`, for which the IC50 in test [1] and in test [2] was above 501 µM each time.
For the molecule `CC(C)N(CCOc1cccc(F)c1)CC(N)=O`, the figures for the IC50 in test [1] and in test [2] were 199 µM and 210 µM, respectively.
For the molecule `OCCNC1CCCC1`, the IC50 in test [1] and in test [2] was above 501 µM throughout.
Consider `COc1ccc(S(=O)(=O)N2CC(NCC3CC3)C2)cc1`, for which the results for the IC50 in test [1] and in test [2] were above 501 µM and 209 µM, respectively.
On to `COc1cccc([C@@H]2C[C@H]2N)c1`, for which the IC50 was above 501 µM in test [1] and 163 µM in test [2].
As for `O=C(c1ccco1)N1CCCN(Cc2cscn2)CC1`, the IC50 in test [1] and in test [2] was above 501 µM each time.
As to `COC(=O)CCCC(=O)N1CCCc2ccccc2C1`, the IC50 in test [1] is above 501 µM; in test [2], 180 µM.
Regarding `CC(C)S(=O)(=O)CCCn1nnc(-c2ccsc2)n1`, the IC50 is 94.9 µM in test [1] and 56.7 µM in test [2].
Consider `N#CCCn1ncc2c(NCc3cccs3)ncnc21`, for which the results for the IC50 in test [1] and in test [2] were above 501 µM and 399 µM, respectively.
As to `CN(CCn1cccn1)c1cc(Br)ccn1`, the results for the IC50 in test [1] and in test [2] were 366 µM and 190 µM, respectively.
In the case of `Brc1ccc2c(c1)OCCNC2`, the IC50 in test [1] and in test [2] was above 501 µM each time.
